Source: patent US11938195B2, “Upconversion nanoparticle peptide conjugates” (BP InnoMed Limited, priority 2021, dated 2024)
Where no end group is shown, it is not given here. [ ]: non-standard residue; d: D form. Ahx = NCCCCCC(=O)O

Key:
LCL3 cells = assay: Cellular uptake by ICP-MS, LCL3; type: cell-based
Procedure: (§1) Subsequently, the quantitative distribution and uptake efficiency of nanoprobes in vitro in C666, HK1, HK1-LMP1 and LCL3 cells lines were monitored and investigated by evaluating the lanthanide content originating from the nanoprobes using inductively coupled plasma mass spectrometry (ICP-MS).
(§2) After co-incubation, the cell culture medium containing the nanoprobes was removed, and the exposed cells were further rinsed with 1 mL PBS three times. After that, the cells were trypsinized and re-dispersed in 1 mL cell medium. The cells were collected by centrifugation at 1500 rpm, and the cell pellet was digested in 100 μL concentrated HNO3 (69%) at room temperature for 3 h. Then, each cell pellet in centrifuge tube was filled up to 10 mL with 1% HNO3. The cellular uptake of all the nanoprobes was recorded via an Agilent 7500 series ICP-MS instrument. All ICP experiments were performed three times, and the values of Gd concentration (ppm) obtained were calculated and averaged.

C666 cells = assay: Cellular uptake by ICP-MS, C666; type: cell-based
Procedure: as §1, §2

HeLa derived xenograft = details: 12.5 mg/kg i.v.; 3-36 h after injection; 980 nm
Procedure: (§3) In vivo upconversion luminescence imaging was performed using UCNP-P5 under 980 nm excitation (laser power: 3 W). C666-tumor-bearing and HeLa-tumor-bearing nude mice were injected with UCNP-P5 through the tail vein.
(§4) In vivo upconversion luminescence imaging: C666 and HeLa cells (10^6 cells) were inoculated subcutaneously in BALB/c female nude mice (6 weeks). When the tumors reached 0.2-0.3 cm in diameter, the C666-tumor-bearing and HeLa-tumor-bearing mice were anesthetized and injected intravenously with UCNP-P5 (150 μl, 12.5 mg/kg per mouse). The in vivo upconversion luminescence images were recorded at different time points (3 h, 6 h, 12 h, 24 h, 36 h).

C666-tumor = details: 12.5 mg/kg i.v.; 3-36 h after injection; 980 nm
Procedure: as §3, §4

[1] = system: EBV- and LMP1-negative HK1 cells; assay: MTT cytotoxicity assay, HK1 cells; type: cell-based; design: unit not given here; details: 24 h incubation
p65 = assay: Western blot of p65 (NF-κB) in LCL3 cells; type: cell-based
Source text: NF-κB signaling pathway is critical for the survival of EBV-infected tumor cells. Here we investigated if our nanoprobes could affect this oncogenic pathway. EBV-positive LCL3 and C666 cells were used as models, EBV-negative HK1 cells were used as control and Western blot was used to analyze the protein expression of p65, a major transcription factor in the NF-κB family. […] GAPDH and Histone are regarded as internal standards in cytosolic and nuclear fractions, respectively. […] This is consistent with the cellular uptake results.
Western blotting: EBV-positive C666, LCL3 and EBV-negative HK1 cell pellets were treated with phosphatase and protease inhibitors at 0-4° C. for 30 min. The total protein concentrations were calculated by protein absorbance. The protein was resolved by sodium dodecyl sulfate-polyacrylamide gel electrophoresis (SDS-PAGE) and transferred to cellulose filter membranes. The membranes were blocked with 3% BSA in Tris-buffered saline in 0.1% Tween 20 (TBST) for 1 h with gentle shaking and subsequently incubated with primary antibodies (1:1000) in 3% BSA in TBST at 4° C. for overnight. After rinsing with TBST buffer three times, the blots were then incubated with corresponding secondary anti-rabbit antibody (1:6000) for 1 h. After that, the blots were rinsed again with 3% BSA in TBST for 1 h shaking at room temperature. Lastly, the density of bands was determined by image analysis system after washing with TBST buffer three times.

HK1-LMP1 cells = assay: Cellular uptake by ICP-MS, HK1-LMP1; type: cell-based
Procedure: as §1, §2

LMP1-positive LCL3 cells = assay: MTT cytotoxicity assay, LCL3 cells; type: cell-based; details: 24 h incubation
Procedure: The inhibitory effects of the novel nanoprobes on both EBV-infected cancer cells and non-EBV-infected cancer cells were investigated by MTT assays to test the cell viability. The cytotoxic assays were performed in EBV-positive C666 and NPC43 cells, LMP1-positive LCL3 and Raji cells, and the LMP1-positive and -negative HK1 cell pair. HK1, MRC-5 and HeLa cell lines are EBV-negative and they serve as negative controls. […] In addition, UCNP-P4, EBNA1-specific peptide coated UCNPs was included as control group, so the ability of inhibiting EBV-related cancer cells can be directly compared with UCNP-Pn [n=5, 6 and 7 (SEQ ID NO: 5, 6, 7)].
In vitro cytotoxic assays: The cytotoxicity of our nanoprobes was determined by MTT reduction assay. The cells (3×10^3 per well) were seeded onto 96-well plates and incubated overnight, followed by treatment with Pn [n=5, 6 and 7 (SEQ ID NO: 5, 6, 7)], UCNP, UCNP-Pn [n=5, 6 and 7 (SEQ ID NO: 5, 6, 7)] and UCNP-P4 individually at 37° C., 5% CO2 for 24 h in dark. The cell monolayers were rinsed with PBS and 50 μL of MTT, 3-(4,5-dimethylthiazol-2-yl)-2,5-diphenyltetrazolium bromide solution (0.5 mg mL^−1) was added per well and the cells were further incubated for 3 h at 37° C. […] The absorptions of the formazan crystal solutions at 540 nm and 690 nm were measured using a dual-wavelength Labsystem Multiskan microplate reader (Merck Eurolab).

[2] = target: EBNA1 (DNA-binding domain fragment of a.a.468-607) (Epstein-Barr virus, UniProt P03211); assay: EBNA1 dimerization/oligomerization inhibition assay; type: biochemical; details: 0.3 mg/mL nanoprobe, 90 mg EBNA1, DSS crosslinking, SDS gel
Procedure: EBNA1 dimerization/oligomerization inhibition assays were performed to reveal the ability of interrupting EBNA1 dimerization/oligomerization in the presence of the previous nanoprobe UCNP-P4 and the nanoplatforms in situ.
(conc.: 0.3 mg/mL) at 4° C. overnight. Then, 2 mM disuccinimidyl suberate (DSS) was added to allow the samples to undergo crosslinking reaction at room temperature for 30 min. The samples were run and separated on an SDS-denaturing gel and proteins were detected using Coomassie Blue staining. PBS buffer was used as control group.

Chain of EBNA1 (DNA-binding domain fragment of a.a.468-607) (P03211 468-607): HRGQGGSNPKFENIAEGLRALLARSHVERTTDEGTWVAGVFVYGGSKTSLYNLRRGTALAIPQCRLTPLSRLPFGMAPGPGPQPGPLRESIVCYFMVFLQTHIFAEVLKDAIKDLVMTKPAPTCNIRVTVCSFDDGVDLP

UCNP-P5: UCNP is NaGdF4:Yb^3+, Er^3+@NaGdF4 and plurality of polypeptides is Ahx-YFMVFGGRrRKGGFWLY (SEQ ID NO: 5), pH-sensitive imine linker ([Ahx]YFMVFGGR[dR]RKGGFWLY; also: conjugated to UCNP NaGdF4:Yb3+,Er3+@NaGdF4 via pH-sensitive imine linker)
Cellular uptake (Gd amount by ICP-MS) (LCL3 cells; 50 μg/mL): largest amount of cellular uptake
Gd amount relative to UCNP-P4 (LCL3 cells; 24 h incubation): over twice
Cellular uptake (Gd amount by ICP-MS) (C666 cells; 50 μg/mL): largest amount of cellular uptake
Gd amount relative to UCNP-P4 (C666 cells; 24 h incubation): over twice
Upconversion luminescence signal from the tumor site (HeLa derived xenograft): only observed at 3 h after the injection
Upconversion luminescence signal from the tumor site (C666-tumor): persisted even 24 h after the injection
IC50 in HK1 [1]: 1027
Decreased p65 expression, nuclear fraction (p65): 86%
Uptake relative to UCNP-P6 and UCNP-P7 (HK1-LMP1 cells; HK1-LMP1 (HK1 / HK1-LMP1 cell pair)): two-fold
Cellular uptake (Gd amount by ICP-MS) (HK1-LMP1 cells; HK1-LMP1, 50 μg/mL): largest amount of cellular uptake
IC50 in LCL3 (LMP1-positive LCL3 cells): 19 mg/mL
Inhibition of EBNA1 dimerization/oligomerization [2]: eradicate all 90 mg EBNA1 dimers and oligomers
